Laboratory results taken from patent US20090068290A1, “BIFEPRUNOX DOSES FOR TREATING SCHIZOPHRENIA” (priority 2006, published 2009).

What was measured:
Format in all cases: in vivo, human
[1] = tested on: adult subjects with schizophrenia; assay: PANSS total score, Clinical Study Two (6-week, risperidone-referenced); details: Risperidone 6 mg, LOCF, ITT
Method: Treatment started with a single-blind placebo lead-in period of at least three days, followed by titration from 0.25 mg up to 30 mg/day or 40 mg/day of bifeprunox for bifeprunox-treated subjects.
Rating scale assessments were performed weekly, except for week 5, to measure the change from baseline to endpoint of the PANSS total score. Other assessments included: PANSS positive symptom subscale score, PANSS negative symptom subscale score, PANSS general pschopathology subscale score, BPRS total score, BPRS psychosis score, the CGI-S score, the CGI-I score, responder rates based on the PANSS total score, and the Calgary Depression Scale for Schizophrenia (CDSS).
Subjects who completed this study had the option to continue in the long-term. […] After completing a Single-Blind placebo lead-in period of at least three days, bifeprunox-treated subjects were titrated from 0.25 mg up to 30 mg/day or 40 mg/day according to a standardized titration scheme over an eight-day period. When the assigned dose was reached, subjects were maintained at that dose for the remainder of the six week treatment period. […] Rating scale assessments for efficacy and abnormal movement disorders were done weekly except for Week 5. Safety assessments were performed at Screening, during treatment and at the end of the study. Subject satisfaction with study medication was assessed at Week 6. Samples of blood were obtained at Weeks 2, 4, and 6 for determination of bifeprunox in plasma. Blood samples were also obtained at Screening/Baseline, Week 3, and Week 6 for clinical laboratory assessments.
Diagnosis and Main Criteria for Inclusion: Male or female subjects 18-75 years of age with schizophrenia (per DSM-IV-TR criteria). Subjects had to have a total score on the PANSS between 70 and 120; at least two of four PANSS items (conceptual disorganization, hallucinatory behavior, suspiciousness, unusual thought content) had to have a score ≧4; and the score on the CGI-S had to be at least 4.

[2] = tested on: adult subjects with schizophrenia; assay: CGI Improvement score, Clinical Study Two; details: 6 mg, LOCF
Method: Rating scale assessments were performed weekly, except for week 5, to measure the change from baseline to endpoint of the PANSS total score. Other assessments included: PANSS positive symptom subscale score, PANSS negative symptom subscale score, PANSS general pschopathology subscale score, BPRS total score, BPRS psychosis score, the CGI-S score, the CGI-I score, responder rates based on the PANSS total score, and the Calgary Depression Scale for Schizophrenia (CDSS). […]
Subjects who completed this study had the option to continue in the long-term. […] Risperidone-treated subjects were titrated from 2 mg to 6 mg daily over a three-day period and were subsequently maintained at 6 mg/day for the remainder of the treatment period. […] Blood samples were also obtained at Screening/Baseline, Week 3, and Week 6 for clinical laboratory assessments.

[3] = tested on: adult subjects with schizophrenia; assay: PANSS positive symptom subscale score, Clinical Study Three; details: Olanzapine 15 mg, LOCF, ITT
From the text: (§1) SECONDARY OBJECTIVES To assess the efficacy of bifeprunox in treating schizophrenia using the Positive Symptom sub-scale score of the PANSS, the Negative Symptom sub-scale score of the PANSS, the General Psychopathology sub-scale of the PANSS, Brief Psychiatric Rating Scale (BPRS) total score derived from the PANSS, BPRS psychosis score derived from the PANSS, the Clinical Global Impression Severity of Illness score (CGI-S), the Clinical Global Impression Improvement score (CGI-I), CGI-I responder rate, PANSS responder rate based on the PANSS total score, Calgary Depression Scale for Schizophrenia (CDSS), and Subject Satisfaction rating.
(§2) There were four treatment arms in this study, approximately 144 subjects per arm. […] After completing the Single-Blind Placebo Lead-in Period of at least three days, bifeprunox-treated subjects were titrated from 0.25 mg up to 20 mg/day or 30 mg/day according to a standardized titration scheme over a seven- or eight-day period, respectively. When the assigned dose was reached, subjects were maintained at that dose for the remainder of the six week treatment period. […] Subjects were hospitalized (if not already inpatients) after eligibility for study entry was verified, starting from the Screening Visit until at least 10 days after Baseline. Subjects could be hospitalized longer than 10 days if considered medically necessary by the Investigator. Rating scale assessments for efficacy and abnormal movement disorders were done weekly except for Week 5. […] Subject satisfaction with study medication was assessed at Week 6.

[4] = tested on: adult subjects with schizophrenia; assay: CGI responder rate, Clinical Study Three; details: LOCF
From the text: CLINICAL STUDY THREE: A CGI responder is defined as a subject who is categorized as “very much improved” or “much improved” on the CGI Improvement scale. […] No notable differences were observed between the placebo group and either of the two bifeprunox dose groups.

[5] = tested on: adult subjects with schizophrenia; assay: Calgary Depression Scale for Schizophrenia (CDSS), Clinical Study Three; details: LOCF; for Change from Baseline in CDSS Total Score, Median / Change from Baseline in CDSS Total Score, Mean (SD): 15 mg
From the text: as §1, §2

SMILES: Cc1nc2n(c(=O)c1CCN1CCC(c3noc4cc(F)ccc34)CC1)CCCC2 [Risperidone, risperidone, reference compound]
- Change from Baseline in PANSS Total Score, Mean (SD) ([1]; Week 1): −8.7 (10.2)
- Change from Baseline in PANSS Total Score, Median ([1]; Week 1): −9
- Change from Baseline in PANSS Total Score, Mean (SD) ([1]; Week 2): −14.8 (14.2)
- Change from Baseline in PANSS Total Score, Median ([1]; Week 2): −15
- Change from Baseline in PANSS Total Score, Median ([1]; Week 3): −18
- Change from Baseline in PANSS Total Score, Mean (SD) ([1]; Week 4): −19.2 (17.0)
- Change from Baseline in PANSS Total Score, Median ([1]; Week 4): −20
- Change from Baseline in PANSS Total Score, Mean (SD) ([1]; Week 6/Endpoint): −19.7 (19.3)
- Change from Baseline in PANSS Total Score, Median ([1]; Week 6/Endpoint): −21
- CGI Improvement Minimally Improved, % ([2]; Week 2): (40%)
- CGI Improvement Minimally Worse, % ([2]; Week 2): (5%)
- CGI Improvement Much Improved, % ([2]; Week 2): (30%)
- CGI Improvement Much Worse, % ([2]; Week 2): (3%)
- CGI Improvement No Change, % ([2]; Week 2): (16%)
- CGI Improvement Very Much Improved, % ([2]; Week 2): (5%)
- CGI Improvement Minimally Improved, % ([2]; Week 3): (33%)
- CGI Improvement Minimally Worse, % ([2]; Week 3): (5%)
- CGI Improvement Much Improved, % ([2]; Week 3): (36%)
- CGI Improvement Much Worse, % ([2]; Week 3): (5%)
- CGI Improvement No Change, % ([2]; Week 3): (13%)
- CGI Improvement Very Much Improved, % ([2]; Week 3): (9%)
- CGI Improvement Minimally Improved, % ([2]; Week 4): (25%)
- CGI Improvement Minimally Worse, % ([2]; Week 4): (5%)
- CGI Improvement Much Improved, % ([2]; Week 4): (38%)
- CGI Improvement Much Worse, % ([2]; Week 4): (5%)
- CGI Improvement No Change, % ([2]; Week 4): (14%)
- CGI Improvement Very Much Improved, % ([2]; Week 4): (13%)
- CGI Improvement Minimally Improved, % ([2]; Week 6/Endpoint): (23%)
- CGI Improvement Minimally Worse, % ([2]; Week 6/Endpoint): (5%)
- CGI Improvement Much Improved, % ([2]; Week 6/Endpoint): (36%)
- CGI Improvement Much Worse, % ([2]; Week 6/Endpoint): (5%)
- CGI Improvement No Change, % ([2]; Week 6/Endpoint): (15%)
- CGI Improvement Very Much Improved, % ([2]; Week 6/Endpoint): (16%)
- CGI Improvement Very Much Worse, % ([2]; Week 6/Endpoint): (<1%)

SMILES: Cc1cc2c(s1)Nc1ccccc1N=C2N1CCN(C)CC1 [Olanzapine, olanzapine, reference compound]
- Change from Baseline in PANSS Positive Symptom Subscale Score, Mean (SD) ([3]; Week 1): −3.0 (3.3)
- Change from Baseline in PANSS Positive Symptom Subscale Score, Median ([3]; Week 1): −2
- Change from Baseline in PANSS Positive Symptom Subscale Score, Mean (SD) ([3]; Week 2): −4.9 (4.0)
- Change from Baseline in PANSS Positive Symptom Subscale Score, Median ([3]; Week 2): −5
- Change from Baseline in PANSS Positive Symptom Subscale Score, Mean (SD) ([3]; Week 3): −6.0 (4.9)
- Change from Baseline in PANSS Positive Symptom Subscale Score, Median ([3]; Week 3): −6
- Change from Baseline in PANSS Positive Symptom Subscale Score, Mean (SD) ([3]; Week 4): −6.4 (5.4)
- Change from Baseline in PANSS Positive Symptom Subscale Score, Median ([3]; Week 4): −7
- Change from Baseline in PANSS Positive Symptom Subscale Score, Mean (SD) ([3]; Week 6/Endpoint): −7.0 (5.8)
- Change from Baseline in PANSS Positive Symptom Subscale Score, Median ([3]; Week 6/Endpoint): −7
- CGI Responder No, % ([4]; 15 mg, Week 6/Endpoint): 54%
- CGI Responder Yes, % ([4]; 15 mg, Week 6/Endpoint): 46%
- CGI-I responder rate (subjects much or very much improved) at Endpoint ([4]; olanzapine 15 mg): 46%
- Change from Baseline in CDSS Total Score, Median ([5]; Week 1): −1.0
- Change from Baseline in CDSS Total Score, Mean (SD) ([5]; Week 2): −1.33 (3.33)
- Change from Baseline in CDSS Total Score, Median ([5]; Week 2): −1.0
- Change from Baseline in CDSS Total Score, Mean (SD) ([5]; Week 3): −1.59 (3.43)
- Change from Baseline in CDSS Total Score, Median ([5]; Week 3): −1.0
- Change from Baseline in CDSS Total Score, Mean (SD) ([5]; Week 4): −1.49 (3.89)
- Change from Baseline in CDSS Total Score, Median ([5]; Week 4): −1.0
- Change from Baseline in CDSS Total Score, Mean (SD) ([5]; Week 6, Endpoint): −1.47 (3.95)
- Change from Baseline in CDSS Total Score, Median ([5]; Week 6, Endpoint): −1.0
- mean change (SD) from Baseline to Endpoint in CDSS score ([5]; olanzapine 15 mg, ITT): −1.47 (3.95)
